{"source": "paper PMC3407089", "about": "“Influence of GABAA Receptor α Subunit Isoforms on the Benzodiazepine Binding Site” (PLoS ONE, 2012)", "key": {"[1]": {"test_system": "α1S204Cβ2γ2 GABAA receptor", "set-up": "method as in PMID 19804380", "details": "10 µM 3-NCS; cited from earlier work"}, "[2]": {"biological_target": "α6N204Cβ2γ2 GABAA receptor", "test": "Covalent reaction of 3-NCS at the binding level (residual radioligand binding, HEK293 membranes)", "set-up": "key: n.r.: no covalent reaction", "details": "3-NCS 30 min on ice, washed; [^3H]15–4513 as radioactive ligand", "experimental": "(§1) cDNAs coding for the αx (x = 1, 2, 3, 6), β2, and γ2S subunits DNA (20 µg : 20 µg : 20 µg) per 9 cm diameter dish were transfected in human embryonic kidney (HEK) 293 cells (American Type of Culture Collection, MD, USA, CRL 1573) using the calcium phosphate precipitation technique. For α5 containing receptors β2 was replaced by β1. […] Culturing of cells and membrane preparation were done as described before.\n(§2) As detailed in previous work, [30], [33] this procedure included three steps: incubation of membranes expressing recombinant wild type or mutant receptors with the reactive agent followed by extensive washing of the membranes in order to remove non-reacted compound and a radioactive ligand binding assay to determine residual binding. No covalent reaction would result in 100% residual binding, and 100% covalent reaction would result in 0% residual binding.\n(§3) Briefly, the membranes were re-suspended in phosphate buffer (100 mM KCl, 10 mM KH2PO4, 0.1 mM EDTA, pH 7.4) using a Glass/Teflon homogenizer. 0.1–1.0 mg/mL of protein were incubated in a total volume of 360 µL with either 10 µM (determination of degree of covalent reaction) or several concentrations of 3-NCS for 30 min on ice. Membranes were collected with rapid filtration on a round 7 mm diameter glass fiber filter (GF/C; Whatman) that was placed on a round 24 mm diameter glass fiber filter (GF/C; Whatman), both pre-washed with phosphate buffer. […] Radioactivity was determined by liquid scintillation counting. Non-specific binding was determined in the presence of 100 µM Ro 15–1788. In control experiments, washing efficiency was estimated by placing radioactivity on the small filter. More than 99.95% of the radioactivity was removed (not shown).\n(§4) Concentration response curves for 3-NCS were fitted with the equation C(c) = Cmax/(1+(EC50/c)), where c is the concentration of 3-NCS, EC50 the concentration of 3-NCS where half maximal covalent reaction was observed, Cmax is the maximal extent of the covalent reaction and C the measured extent of the covalent reaction."}, "[3]": {"biological_target": "α6S203Cβ2γ2 GABAA receptor", "test": "Covalent reaction of 3-NCS at the binding level (residual radioligand binding, HEK293 membranes)", "set-up": "key: n.r.: no covalent reaction", "details": "3-NCS 30 min on ice, washed; [^3H]15–4513 as radioactive ligand", "experimental": "as §1, §2, §3, §4"}, "[4]": {"biological_target": "α1S204Cβ2γ2 GABAA receptor", "test": "Covalent reaction of 3-NCS at the binding level (residual radioligand binding, HEK293 membranes)", "set-up": "key: n.r.: no covalent reaction", "details": "3-NCS 30 min on ice, washed; residual [^3H]Ro15–1788 binding", "experimental": "as §1, §2, §3, §4"}, "[5]": {"test_system": "mutated GABAA receptors", "test": "Time course of covalent reaction at the binding level (preliminary experiments)", "details": "10 µM and 1 µM 3-NCS, not shown", "experimental": "as §2, §3"}}, "data": [{"smiles": "CN1C(=O)C(N=C=S)N=C(c2ccccc2)c2cc([N+](=O)[O-])ccc21", "note": "(centres unmarked) [3-NCS]", "values": [{"measurement": "Covalent reaction with 3-NCS (in words)", "setting": "[1]", "value": "did not covalently react"}, {"measurement": "EC50 of the covalent reaction", "setting": "[2]", "value": "n.r. ^a"}, {"measurement": "EC50 of the covalent reaction", "setting": "[3]", "value": "n.r. ^a"}, {"measurement": "EC50 of the covalent reaction", "setting": "[4]", "value": "n.r."}, {"measurement": "Time to maximum of covalent reaction", "setting": "[5]", "value": "≤ 15", "unit": "s"}]}]}
